Where a name gives a salt, the structure may show the parent alone.
Key:
[1] = target: T1, α2δ subunit derived from porcine brain tissue (Sus scrofa, UniProt A0A287BIN3); experiment: radioligand binding assay using [3H]gabapentin and the α2δ subunit; details: read-out: IC50 (μM) at α2δ Binding Site
T1 construct: the α2δ subunit derived from porcine brain tissue was used; from tissue; host or cells: porcine brain tissue

[2] = system: carrageenin-induced hyperalgesia in the rat paw; experiment: Carrageenin-induced hyperalgesia, rat paw pressure test (Randall-Selitto); assay type: in vivo, rat (male Sprague-Dawley); details: dosed orally at 30 mg/kg
Protocol: Carrageenin-Induced Hyperalgesia
Nociceptive pressure thresholds were measured in the rat paw pressure test using an analgesimeter (Randall-Selitto method: Randall L. O. and Selitto J. J., “A method for measurement of analgesic activity on inflamed tissue,” Arch. Int. Pharmacodyn., 1957;4:409-419). Male Sprague-Dawley rats (70-90 g) were trained on this apparatus before the test day. Pressure was gradually applied to the hind paw of each rat and nociceptive thresholds were determined as the pressure (g) required to elicit paw withdrawal. A cutoff point of 250 g was used to prevent any tissue damage to the paw. On the test day, two to three baseline measurements were taken before animals were administered 100 μL of 2% carrageenin by intraplantar injection into the right hind paw.
(R)-2-Aza-spiro[4.5]decane-4-carboxylic acid hydrochloride was tested in the above carrageenan-induced hyperalgesia model. The compound was dosed orally at 30 mg/kg, and 1 hour postdose gave a percent of maximum possible effect (MPE) of 53%. At 2 hours postdose, it gave only 4.6% of MPE.

T1 sequence (A0A287BIN3 25-1109): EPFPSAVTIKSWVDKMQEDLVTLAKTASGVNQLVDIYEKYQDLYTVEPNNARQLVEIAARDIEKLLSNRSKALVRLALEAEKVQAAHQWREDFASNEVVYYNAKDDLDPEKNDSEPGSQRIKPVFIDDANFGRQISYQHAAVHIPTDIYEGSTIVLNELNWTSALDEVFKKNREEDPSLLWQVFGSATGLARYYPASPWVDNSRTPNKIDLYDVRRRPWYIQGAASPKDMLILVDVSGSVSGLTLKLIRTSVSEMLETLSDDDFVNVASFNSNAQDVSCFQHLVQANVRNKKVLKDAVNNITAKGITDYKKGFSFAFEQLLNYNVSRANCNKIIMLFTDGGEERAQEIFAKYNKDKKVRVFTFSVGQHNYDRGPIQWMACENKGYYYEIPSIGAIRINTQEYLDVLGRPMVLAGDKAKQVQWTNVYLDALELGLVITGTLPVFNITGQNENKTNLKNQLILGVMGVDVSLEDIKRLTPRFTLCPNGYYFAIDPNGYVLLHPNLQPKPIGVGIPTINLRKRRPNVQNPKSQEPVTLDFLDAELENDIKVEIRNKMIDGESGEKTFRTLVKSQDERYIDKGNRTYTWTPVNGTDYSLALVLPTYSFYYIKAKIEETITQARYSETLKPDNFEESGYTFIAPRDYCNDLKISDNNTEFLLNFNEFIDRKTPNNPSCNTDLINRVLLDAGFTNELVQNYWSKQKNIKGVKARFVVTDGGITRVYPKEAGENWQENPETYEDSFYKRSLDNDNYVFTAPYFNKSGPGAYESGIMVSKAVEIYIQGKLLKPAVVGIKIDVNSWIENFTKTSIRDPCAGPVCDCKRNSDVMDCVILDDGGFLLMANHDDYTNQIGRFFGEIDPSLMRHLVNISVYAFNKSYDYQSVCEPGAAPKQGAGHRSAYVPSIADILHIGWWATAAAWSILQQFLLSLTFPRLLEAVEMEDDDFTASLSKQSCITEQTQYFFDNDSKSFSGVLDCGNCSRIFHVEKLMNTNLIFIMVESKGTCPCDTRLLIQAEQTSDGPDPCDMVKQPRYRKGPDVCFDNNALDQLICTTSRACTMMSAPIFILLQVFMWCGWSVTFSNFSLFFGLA

Structure (SMILES) | IC50 [1] [µM] | melting point [°C] | percent of maximum possible effect (MPE) ([2]; 1 hour postdose) [%] | percent of maximum possible effect (MPE) ([2]; 2 hours postdose) [%]
Cl.O=C(O)C1NCC12CCCCC2 (racemic) [(±)-2-Aza-spiro[3.5]nonane-1-carboxylic acid hydrochloride] | 1.5 | 163 to 165 | – | –
Cl.O=C(O)[C@H]1CNCC12CCCCC2 [(R)-2-Aza-spiro[4.5]decane-4-carboxylic acid hydrochloride] | 0.16 | – | 53 | 4.6
O=C(O)[C@@H]1CNCC12CCCCC2 [(S)-2-Aza-spiro[4.5]decane-4-carboxylic acid hydrochloride] | > 10 | – | – | –
O=C(O)C1CNCC12C1CCCC2CCC1 (stereo not drawn) [Spiro[bicyclo[3.3.1]nonane-9,3′-pyrrolidine]-4′-carboxylic acid] | 0.57 | – | – | –

The remaining compounds from weak to strong by IC50 [1], led by results:

IC50 [1] [µM] | melting point [°C] | Structure (SMILES) | percent of maximum possible effect (MPE) ([2]; 1 hour postdose) [%] | percent of maximum possible effect (MPE) ([2]; 2 hours postdose) [%]
0.42 | – | O=C(O)C1CNCC12C1CC3CC(C1)CC2C3 (stereo not drawn) [Spiro[pyrrolidine-3,2′-tricyclo[3.3.1.1^3,7]decane]-4-carboxylic acid] | – | –
0.35 | – | O=C(O)C1CNCC12CCCCC2 (racemic) [(±)-2-Aza-spiro[4.5]decane-4-carboxylic acid hydrochloride] | – | –

— patent US6489352B2, “Conformationally constrained compounds as pharmaceutical agents” (Warner-Lambert Company, priority 1998, dated 2002)
